Publication PMC3226889 (Biochemistry, 2011)

Experiments:
APE1 redox activity = conditions: cell-based studies; ref [15], [17], [21], [23], [48]; cited from earlier work
APE1^ΔN38 = APE1^ΔN38 (Homo sapiens, UniProt P27695); test: NMR chemical shift perturbation titration; type: binding
p50 (NF-kB subunit) = p50 (NF-kB subunit) (human, UniProt P19838 42-367); test: EMSA
p50 (NF-kB subunit), sequence (P19838 42-367): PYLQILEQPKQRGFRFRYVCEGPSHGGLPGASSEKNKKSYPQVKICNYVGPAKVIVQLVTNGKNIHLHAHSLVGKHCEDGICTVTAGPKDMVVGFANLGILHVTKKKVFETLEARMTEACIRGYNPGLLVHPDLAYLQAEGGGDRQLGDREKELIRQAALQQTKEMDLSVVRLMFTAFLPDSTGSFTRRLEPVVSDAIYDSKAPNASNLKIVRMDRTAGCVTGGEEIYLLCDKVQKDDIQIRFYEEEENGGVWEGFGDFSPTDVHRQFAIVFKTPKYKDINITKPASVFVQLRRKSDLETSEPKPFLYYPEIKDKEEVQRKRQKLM

APE1^ΔN38, sequence (P27695 39-318): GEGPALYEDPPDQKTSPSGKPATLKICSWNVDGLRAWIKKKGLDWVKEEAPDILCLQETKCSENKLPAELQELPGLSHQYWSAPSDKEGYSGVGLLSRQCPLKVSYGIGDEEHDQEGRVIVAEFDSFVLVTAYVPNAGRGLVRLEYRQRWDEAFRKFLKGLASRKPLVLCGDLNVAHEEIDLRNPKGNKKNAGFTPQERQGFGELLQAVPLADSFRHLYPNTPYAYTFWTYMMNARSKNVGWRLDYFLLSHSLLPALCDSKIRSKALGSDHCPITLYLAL

CCCCCCCCC/C(=C\C1=C(C)C(=O)C(OC)=C(OC)C1=O)C(=O)O [E3330, (E)-3-[2-(5,6-dimethoxy-3-methyl-1,4-benzoquinonyl)]-2-nonylpropenoic acid]
E3330 concentrations at which observed effects occur (APE1 redox activity): 5 to 50 µM

C/C(=C\C1=C(Cl)C(=O)c2ccccc2C1=O)C(=O)O [RN7-60, (E)-3-(3-chloro-1,4-naphthoquinon-2-yl)-2-methylpropenoic acid]
Kd (APE1^ΔN38): 264 ± 72 µM | covalent modification of Cys residues (APE1^ΔN38; NMR conditions including 0.5 mM DTT): no evidence for covalent modification of any Cys residue | fold tighter affinity of RN7-60 than E3330 (APE1^ΔN38; similar conditions): about 2 fold

B1: p50 DNA (dsDNA)
DNA 1: AAGGGACTTTCCGCTGGGGATTCCAT
DNA 2: ATGGAATCCCCAGCGGAAAGTCCCTT
modifications: 3'-terminal T of strand 1 is fluorescein-dT (printed as Y)
binding result (p50 (NF-kB subunit)): binds
